Experimental data from patent publication US20110053951A1, “METHODS FOR TREATING DISORDERS USING NMDA NR2B-SUBTYPE SELECTIVE ANTAGONIST” (EVOTEC NEUROSCIENCES GMBH, priority 2008, published 2011).
Structures can show the parent of a compound that is named as a salt.

Experiments:
[1] = Cerebrospinal fluid (CSF) penetration by lumbar puncture, LC-MS-MS; format: in vivo, human; conditions: 8 mg daily for 8 days, six healthy subjects, 3 to 4 hours after dosing on day 8
Method: One lumbar puncture per subject was performed on day 8 of treatment (daily dose of 8 mg of bis HCl salt of the compound of formula (I)), in the timeframe of 3 to 4 hours after dosing.
All care was taken to avoid contamination of the collected CSF sample with blood. Thus, only clear CSF was collected, after blood-contaminated liquid has left the cannula. Bloody taps were discarded.
Samples were aliquoted per time point for the measurement of compound of formula (I) as follows: a 0.5 ml CSF sample was aliquoted in empty dry polypropylene tubes from the ≈5 ml CSF collected at each scheduled time point.
CSF samples were stored immediately in an upright position at a temperature of −70° C. or below until shipment. Compound of formula (I) concentrations were measured by a specific and validated LC-MS-MS method. Cerebrospinal fluid (CSF) penetration has been assessed in six healthy subjects receiving 8 mg of bis HCl salt of compound of formula (I) daily for 8 days. […] Such concentrations in the CSF have been extrapolated to estimate the extent of occupancy of the NR2B subtype of the NMDA receptor. […] The selectivity of the compound of formula (I) and salts thereof in combination with the good penetration of the blood brain barrier at well-tolerated dosages according to the present invention provides a therapeutic advantage.

[2] = biological target: NR2B subtype of the NMDA receptor (Homo sapiens, UniProt Q05586+Q13224); test: Receptor occupancy estimated by extrapolation from CSF concentrations; format: in vivo; conditions: daily dose of 8 mg; extrapolated from CSF concentrations; compared with therapeutic dosages of memantine
Method: CSF samples were stored immediately in an upright position at a temperature of −70° C. or below until shipment. Compound of formula (I) concentrations were measured by a specific and validated LC-MS-MS method. […] Such concentrations in the CSF have been extrapolated to estimate the extent of occupancy of the NR2B subtype of the NMDA receptor.

[3] = test system: healthy young and elderly subjects; test: Double-blind, placebo-controlled, single and multiple oral dose safety and tolerability study; format: in vivo, human
Method: A double-blind, placebo-controlled, randomized, single, and multiple oral dose study was conducted in order to determine safety and tolerability of the bis HCl salt of compound of formula (I) in healthy young and elderly subjects. The study was conducted in two parts.
Part 1 comprised an ascending single dose, sequential group study in 48 young male subjects, incorporating a two-period crossover arm to investigate the effect of food. Part 2 comprised an ascending multiple dose, sequential group study in 24 young male subjects and an ascending single and multiple dose, sequential group study in 18 elderly subjects (10 males and 8 females) subjects. On each dosing occasion, the subjects received a single capsule containing the appropriate amount of either the bis HCl salt of compound of formula (I) or microcrystalline cellulose. Treatments were administered orally with 240 ml water while the subjects were in a standing position.
The condition of each subject was monitored throughout the study. In addition, any signs and symptoms were observed and elicited at least once a day by open questioning, such as “How have you been feeling since you were last asked?” Subjects were also encouraged to report spontaneously any adverse events during the study.
Any adverse events or remedial actions were recorded. The nature, time of onset, duration, and severity were documented. Any clinically significant abnormalities found during the course of the study were followed up until they returned to normal or could be clinically explained.
A serious adverse event is defined as any untoward medical occurrence that at any dose either results in death, is life-threatening, requires inpatient hospitalization, or prolongs existing hospitalization, results in persistent or significant disability/incapacity, and/or results in a congenital anomaly/birth defect.
Important medical events that may not result in death, be life-threatening, or require hospitalization may be considered to be serious adverse events when, based upon appropriate medical judgment, they may jeopardize the subject or may require medical or surgical intervention to prevent one of the above-described outcomes.

healthy volunteers [4] = test: Continuous arterial spin labeling (CASL) perfusion MRI of regional cerebral blood flow (rCBF); format: in vivo, human; conditions: for increase in rCBF: anterior cingulate cluster
Method: (§1) A double blind, placebo controlled study was conducted in 19 healthy volunteers to investigate the role of NMDA receptor NR2B subunit selective antagonism on cognitive functions and neurophysiology as measured with magnetic resonance imaging (MRI). This study utilized functional MRI to determine changes in regional cerebral blood flow (rCBF) and the putative modulation of neural networks during performance of cognitive tasks by the subjects after they were administered the bis HCl salt of compound of formula (I).
The 19 healthy male volunteers who participated in this study were scanned using functional magnetic resonance imaging (fMRI) whilst performing cognitive tasks (including the PAL task described below in more detail) designed to measure associative learning, sustained attention, and episodic memory. These tasks were repeated on three study days two hours prior to the fMRI session. On these three separate occasions, the participants received a capsule containing either placebo (microcrystalline cellulose), 8 mg, or 15 mg of the bis HCl salt of compound of formula (I) such that all treatments were given to all participants. During the fMRI session, the tasks were presented in a randomized order to each subject; however, the order assigned was then maintained across all three study sessions. Additional practice on the tasks was offered to the participants before entering the scanner, and the instructions were repeated prior to each task being performed whilst in the scanner.
Images were acquired on a 1.5T GE Excite HDx system (General Electric, Milwaukee, Wis.). For all tasks a gradient-echo EPI sequence was used with TE=40 ms, FOV=24 cm, and in-plane resolution of 3.75 mm^2 (matrix=64^2). Thirty-eight axial slices with thickness 3 mm (0.3 mm gap) approximately parallel to the AC/PC line were obtained. For the paired associates learning task TR=3000 ms. In addition, a high-resolution image was acquired using single shot EPI with TR=3000 ms, TE=40 ms, FOV=24 cm, 3 mm slice thickness with 0.3 mm gap, matrix=128^2, and 43 slices. This image was used to determine coregistration parameters.
Whole-brain resting perfusion images were acquired with a continuous arterial spin labeling (CASL) sequence consisting of a pseudo-continuous flow-driven, adiabatic inversion scheme and a continuous 3D fast spin echo (FSE) sequence with an interleaved stack of variable density spirals acquisition (Alsop and Detre (1998) Multisection cerebral blood flow MR imaging with continuous arterial spin labeling. Radiology 208: 410-6). CASL perfusion images are able to delineate grey and white matter and provide high resolution quantification of rCBF across the whole brain. Because of the genuine 3-dimensional encoding and readout of this multi-shot technique, and the refocusing of magnetic susceptibility induced signal distortions, the maps of whole brain rCBF obtainable with this technique are of good image quality and exquisite spatial resolution.
For the perfusion images, brain volumes were first normalized into a standard anatomical space (International Consortium on Brain Mapping—ICBM), using affine registration and non-linear transformations. Normalization utilized a single image to which all three CASL sessions were coregistered in order to reduce the likelihood of preprocessing-dependent differences between the drug and placebo session images. All images were spatially smoothed using a Gaussian kernel full-width at half-maximum filter of 6×6×6 mm to improve signal-to-noise ratio and allow for inherent functional and gyral variability across participants.
Image preprocessing and analysis were carried out using Statistical Parametric Mapping software developed by the Functional Imaging Laboratory, UCL, (SPM v5.0, www.fillon.ucl.ac.ulc/spm/)., running under Matlab 7.0.1, and a blood oxygen level dependency (BOLD) was determined. BOLD changes to cognitive tasks represent changes of neuronal activities of respective brain areas.

healthy volunteers [5] = test: fMRI (BOLD) during Paired Associates Learning (PAL) task; format: in vivo, human
Method: as §1
The 19 healthy male volunteers who participated in this study were scanned using functional magnetic resonance imaging (fMRI) whilst performing cognitive tasks (including the PAL task described below in more detail) designed to measure associative learning, sustained attention, and episodic memory. These tasks were repeated on three study days two hours prior to the fMRI session. […]
Image preprocessing and analysis were carried out using Statistical Parametric Mapping software developed by the Functional Imaging Laboratory, UCL, (SPM v5.0, www.fillon.ucl.ac.ulc/spm/)., running under Matlab 7.0.1, and a blood oxygen level dependency (BOLD) was determined. […]

[6] = throughout the study, young and elderly subjects

Sequence of NR2B subtype of the NMDA receptor (Q13224 27-1484, other chains not shown): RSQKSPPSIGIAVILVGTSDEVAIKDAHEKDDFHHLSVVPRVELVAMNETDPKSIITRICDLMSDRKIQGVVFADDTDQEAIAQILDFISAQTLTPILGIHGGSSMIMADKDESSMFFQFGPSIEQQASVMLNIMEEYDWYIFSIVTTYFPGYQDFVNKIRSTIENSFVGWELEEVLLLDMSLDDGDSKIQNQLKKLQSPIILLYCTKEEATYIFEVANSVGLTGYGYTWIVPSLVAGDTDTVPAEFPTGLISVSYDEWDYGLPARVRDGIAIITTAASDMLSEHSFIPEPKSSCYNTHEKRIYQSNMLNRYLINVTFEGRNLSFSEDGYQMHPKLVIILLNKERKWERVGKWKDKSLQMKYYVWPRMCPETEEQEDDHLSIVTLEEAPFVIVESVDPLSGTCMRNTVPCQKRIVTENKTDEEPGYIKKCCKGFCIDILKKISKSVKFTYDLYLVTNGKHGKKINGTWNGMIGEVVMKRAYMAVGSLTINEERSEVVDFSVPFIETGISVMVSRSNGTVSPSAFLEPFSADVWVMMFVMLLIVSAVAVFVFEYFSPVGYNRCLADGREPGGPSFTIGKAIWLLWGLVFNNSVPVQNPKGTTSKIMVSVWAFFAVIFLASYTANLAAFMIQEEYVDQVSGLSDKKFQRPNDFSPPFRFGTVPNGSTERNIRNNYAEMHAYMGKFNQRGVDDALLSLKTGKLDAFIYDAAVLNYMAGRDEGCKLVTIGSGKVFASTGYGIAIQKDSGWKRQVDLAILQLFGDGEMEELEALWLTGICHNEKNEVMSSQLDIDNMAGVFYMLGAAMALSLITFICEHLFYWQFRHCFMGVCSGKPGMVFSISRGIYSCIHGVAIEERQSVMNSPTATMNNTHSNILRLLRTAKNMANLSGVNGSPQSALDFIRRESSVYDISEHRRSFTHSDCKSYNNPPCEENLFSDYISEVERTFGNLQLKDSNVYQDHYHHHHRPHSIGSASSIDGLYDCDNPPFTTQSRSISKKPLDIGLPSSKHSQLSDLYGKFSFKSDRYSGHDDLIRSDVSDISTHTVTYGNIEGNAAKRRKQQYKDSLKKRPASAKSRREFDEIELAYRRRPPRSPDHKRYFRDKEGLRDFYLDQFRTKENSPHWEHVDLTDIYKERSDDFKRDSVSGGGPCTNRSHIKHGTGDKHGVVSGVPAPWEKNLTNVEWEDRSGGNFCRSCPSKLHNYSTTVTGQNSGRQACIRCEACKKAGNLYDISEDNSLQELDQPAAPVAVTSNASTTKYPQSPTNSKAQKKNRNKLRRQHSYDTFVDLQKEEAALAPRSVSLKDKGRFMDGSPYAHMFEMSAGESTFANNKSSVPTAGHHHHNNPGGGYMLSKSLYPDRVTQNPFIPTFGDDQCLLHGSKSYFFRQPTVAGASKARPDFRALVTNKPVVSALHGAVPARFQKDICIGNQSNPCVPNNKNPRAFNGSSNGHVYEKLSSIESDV

Cc1nccn1Cc1cc(-c2ccc(F)c(C(F)F)c2)cnn1 [compound of formula (I), 5-(3-difluoromethyl-4-fluoro-phenyl)-3-(2-methyl-imidazol-1-yl-methyl)-pyridazine]
CSF concentration relative to plasma concentration [1]: largely corresponds to the free (unbound) plasma concentrations
receptor occupancy [2]: greater than that, which corresponds to currently used therapeutic dosages of memantine

Cc1nccn1Cc1cc(-c2ccc(F)c(C(F)F)c2)cnn1 [bis HCl salt of compound of formula (I), 5-(3-difluoromethyl-4-fluoro-phenyl)-3-(2-methyl-imidazol-1-yl-methyl)-pyridazine]
tolerability ([3]; elderly males and females, multiple oral doses (over 8 days) of up to 3 mg twice daily): very well tolerated
tolerability ([3]; elderly males and females, single oral doses of up to 4 mg): very well tolerated
vital signs and electrocardiogram (ECG) parameters ([3]; following single or multiple dosing in young or elderly subjects): no apparent trends
incidence of adverse events [3, 6]: low incidence of mainly mild adverse events
serious or severe adverse events [3, 6]: no serious or severe adverse events
tolerability ([3]; young males, multiple oral doses (over 8 days) of up to 8 mg once daily): very well tolerated
tolerability ([3]; young males, single oral doses of up to 15 mg (including 2, 5 and 10 mg)): very well tolerated
decreases in rCBF (healthy volunteers [4]; 8 mg and 15 mg oral): no clusters of voxels showing significant decreases in rCBF
areas of increased/decreased perfusion (healthy volunteers [4]; 8 mg oral vs placebo): No statistically significant changes
increase in rCBF (healthy volunteers [4]; 8 mg oral): 17.5%
rCBF, direct comparison with placebo (healthy volunteers [4]; 15 mg oral, anterior cingulate): highly significant cluster of increased rCBF
increase in rCBF (healthy volunteers [4]; 15 mg oral): 17.9%
rCBF normalized to global signal, main effect of drug (healthy volunteers [4]; averaged over 8 mg and 15 mg vs placebo, genu of the anterior cingulate cortex): increased signal
dose response relationship of perfusion between 8 mg and 15 mg (healthy volunteers [4]; formal comparison across the entire brain volume, ignoring placebo): No changes were seen
global perfusion (whole brain) (healthy volunteers [4]; placebo, 8 mg and 15 mg oral, CASL perfusion maps): no difference across the three conditions studied
regional effects on absolute perfusion (healthy volunteers [4]; placebo, 8 mg and 15 mg, threshold p=0.05 corrected across whole brain): no significant clusters where signal differed
functional performance of subjects in PAL (healthy volunteers [5]; 8 mg and 15 mg oral, healthy young subjects): unaffected
BOLD signal during retrieval in memory retrieval network (healthy volunteers [5]; placebo, 8 mg, 15 mg oral, PAL task, preliminary analysis): dose dependent increases in BOLD signal
